Reference: PubChem BioAssay (NCI)
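Growth conditions: 96-well plates. Treatment: test compound, 48 hours, 5 concentrations. Analysis: linear interpolation between bracketing concentrations; unreached endpoints set to highest concentration. The concentration for 50% growth inhibition is given as GI50. At the TGI there is no net growth.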

What was measured:
Experiment in all cases: DTP human tumour cell line panel, 48 h
[1] = system: SK-MEL-5 melanoma
[2] = system: 786-0 renal
[3] = system: OVCAR-4 ovarian
[4] = system: MOLT-4 leukemia
[5] = system: SF-295 CNS
[6] = system: KM12 colon
[7] = system: HCC-2998 colon
[8] = system: SK-MEL-28 melanoma
[9] = system: COLO 205 colon
[10] = system: UACC-257 melanoma
[11] = system: NCI/ADR-RES ovarian
[12] = system: M14 melanoma
[13] = system: EKVX NSCLC
[14] = system: A498 renal
[15] = system: SNB-75 CNS
[16] = system: CAKI-1 renal
[17] = system: ACHN renal
[18] = system: BT-549 breast
[19] = system: DU-145 prostate
[20] = system: SK-MEL-2 melanoma
[21] = system: HCT-116 colon
[22] = system: OVCAR-3 ovarian
[23] = system: NCI-H23 lung
[24] = system: HOP-62 NSCLC
[25] = system: SF-268 CNS
[26] = system: MALME-3M melanoma
[27] = system: MDA-MB-435
[28] = system: UACC-62 melanoma
[29] = system: SF-539 CNS
[30] = system: MDA-MB-231 breast
[31] = system: HL-60(TB) leukemia
[32] = system: OVCAR-5 ovarian
[33] = system: SK-OV-3 ovarian
[34] = system: IGROV1 ovarian
[35] = system: HOP-92 NSCLC
[36] = system: U251 CNS
[37] = system: HT29 colon
[38] = system: SN12C renal
[39] = system: HCT-15 colon
[40] = system: SW-620 colon
[41] = system: TK-10 renal
[42] = system: NCI-H522 lung
[43] = system: RPMI-8226 leukemia
[44] = system: SNB-19 CNS
[45] = system: UO-31 renal
[46] = system: NCI-H460 lung
[47] = system: MCF7 breast
[48] = system: PC-3 prostate
[49] = system: RXF 393 renal
[50] = system: A549 NSCLC
[51] = system: K-562 leukemia
[52] = system: NCI-H226 lung
[53] = system: T-47D breast
[54] = system: OVCAR-8 ovarian
[55] = system: SR leukemia
[56] = system: CCRF-CEM leukemia

CCCN1CCN(c2ccc3nc(-c4ccc5nc(-c6ccc(C(F)(F)F)cc6)[nH]c5c4)[nH]c3c2)CC1
GI50 [1]: 1.77 µM | TGI [1]: 3.48 µM | GI50 [2]: 1.78 µM | TGI [2]: 3.27 µM | GI50 [3]: 1.75 µM | TGI [3]: 3.44 µM | GI50 [4]: 1.87 µM | TGI [4]: 3.62 µM | GI50 [5]: 1.66 µM | TGI [5]: 3.1 µM | GI50 [6]: 1.78 µM | TGI [6]: 3.32 µM | GI50 [7]: 1.89 µM | TGI [7]: 3.46 µM | GI50 [8]: 1.78 µM | TGI [8]: 3.25 µM | GI50 [9]: 1.52 µM | TGI [9]: 3.24 µM | GI50 [10]: 1.85 µM | TGI [10]: 3.57 µM | GI50 [11]: 6.46 µM | TGI [11]: > 100 µM | GI50 [12]: 1.48 µM | TGI [12]: 2.88 µM | GI50 [13]: 1.87 µM | TGI [13]: 3.33 µM | GI50 [14]: 1.87 µM | TGI [14]: 3.77 µM | GI50 [15]: 1.5 µM | TGI [15]: 2.93 µM | GI50 [16]: 1.76 µM | TGI [16]: 3.2 µM | GI50 [17]: 1.6 µM | TGI [17]: 2.96 µM | GI50 [18]: 1.75 µM | TGI [18]: 3.2 µM | GI50 [19]: 1.9 µM | TGI [19]: 3.36 µM | GI50 [20]: 1.92 µM | TGI [20]: 3.58 µM | GI50 [21]: 1.38 µM | TGI [21]: 2.71 µM | GI50 [22]: 1.65 µM | TGI [22]: 3.07 µM | GI50 [23]: 1.71 µM | TGI [23]: 3.22 µM | GI50 [24]: 1.56 µM | TGI [24]: 3.15 µM | GI50 [25]: 1.88 µM | TGI [25]: 3.56 µM | GI50 [26]: 1.35 µM | TGI [26]: 2.77 µM | GI50 [27]: 1.86 µM | TGI [27]: 3.47 µM | GI50 [28]: 1.66 µM | TGI [28]: 3.23 µM | GI50 [29]: 1.77 µM | TGI [29]: 3.2 µM | GI50 [30]: 1.98 µM | TGI [30]: 3.52 µM | GI50 [31]: 2 µM | TGI [31]: 3.76 µM | GI50 [32]: 1.93 µM | TGI [32]: 3.36 µM

O=[N+]([O-])c1ccc(OCc2nnc(CCCCCCCCc3nnc(COc4ccc([N+](=O)[O-])cc4)o3)o2)cc1
TGI [1]: > 100 µM | TGI [2]: > 100 µM | TGI [3]: > 100 µM | TGI [33]: > 100 µM | TGI [4]: > 100 µM | TGI [5]: > 100 µM | TGI [34]: > 100 µM | TGI [35]: > 100 µM | TGI [6]: > 100 µM | TGI [7]: > 100 µM | TGI [36]: > 100 µM | TGI [37]: > 100 µM | TGI [8]: > 100 µM | TGI [38]: > 100 µM | TGI [9]: > 100 µM | TGI [10]: > 100 µM | TGI [11]: > 100 µM | TGI [12]: > 100 µM | TGI [13]: > 100 µM | TGI [14]: > 100 µM | TGI [15]: > 100 µM | TGI [39]: > 100 µM | TGI [40]: > 100 µM | TGI [41]: > 100 µM | TGI [42]: > 100 µM | TGI [43]: > 100 µM | TGI [44]: > 100 µM | TGI [45]: > 100 µM | TGI [46]: > 100 µM | TGI [17]: > 100 µM | TGI [18]: > 100 µM | TGI [19]: > 100 µM | TGI [20]: > 100 µM | TGI [21]: > 100 µM | TGI [22]: > 100 µM | TGI [47]: > 100 µM | TGI [23]: > 100 µM | TGI [48]: > 100 µM | TGI [25]: > 100 µM | TGI [26]: > 100 µM | TGI [49]: 83.3 µM | TGI [27]: > 100 µM | TGI [28]: > 100 µM | TGI [50]: > 100 µM | TGI [51]: > 100 µM | TGI [30]: > 100 µM | TGI [52]: > 100 µM | TGI [32]: > 100 µM

N#Cc1c(-c2ccc(Cl)cc2)cc(-c2ccc(Nc3ccnc4cc(Cl)ccc34)cc2)nc1N
TGI [2]: > 100 µM | TGI [3]: > 100 µM | TGI [33]: > 100 µM | TGI [5]: > 100 µM | TGI [34]: > 100 µM | TGI [35]: > 100 µM | TGI [6]: > 100 µM | TGI [53]: > 100 µM | TGI [7]: > 100 µM | TGI [36]: > 100 µM | TGI [8]: > 100 µM | TGI [9]: > 100 µM | TGI [11]: > 100 µM | TGI [12]: > 100 µM | TGI [54]: > 100 µM | TGI [13]: > 100 µM | TGI [14]: > 100 µM | TGI [15]: > 100 µM | TGI [39]: > 100 µM | TGI [40]: > 100 µM | TGI [55]: > 100 µM | TGI [16]: > 100 µM | TGI [41]: > 100 µM | TGI [42]: > 100 µM | TGI [43]: > 100 µM | TGI [44]: > 100 µM | TGI [45]: > 100 µM | TGI [46]: > 100 µM | TGI [17]: > 100 µM | TGI [18]: > 100 µM | TGI [19]: > 100 µM | TGI [20]: > 100 µM | TGI [21]: > 100 µM | TGI [22]: > 100 µM | TGI [23]: > 100 µM | TGI [24]: > 100 µM | TGI [48]: > 100 µM | TGI [25]: > 100 µM | TGI [26]: > 100 µM | TGI [49]: > 100 µM | TGI [27]: > 100 µM | TGI [28]: > 100 µM | TGI [50]: > 100 µM | TGI [29]: > 100 µM | TGI [51]: > 100 µM | TGI [30]: > 100 µM | TGI [31]: > 100 µM | TGI [52]: > 100 µM | TGI [32]: > 100 µM

COc1ccc2[nH]c3c(C)c4ccnc(NCCCN(C)CCCNc5ccc([N+](=O)[O-])c6[nH]c7ccccc7c(=O)c56)c4c(C)c3c2c1
TGI [4]: 0.989 µM | TGI [56]: 4.12 µM | TGI [34]: 0.755 µM | TGI [6]: 1.43 µM | TGI [7]: 0.568 µM | TGI [37]: 0.107 µM | TGI [12]: 0.988 µM | TGI [54]: 1.11 µM | TGI [13]: 0.964 µM | TGI [39]: 0.68 µM | TGI [42]: 0.822 µM | TGI [43]: 50 µM | TGI [44]: 1.42 µM | TGI [45]: 2.21 µM | TGI [46]: 0.0678 µM | TGI [17]: 0.648 µM | TGI [19]: 1.27 µM | TGI [20]: 1.46 µM | TGI [22]: 1.2 µM | TGI [47]: 0.0954 µM | TGI [24]: 1.06 µM | TGI [48]: 1.21 µM | TGI [50]: 0.0783 µM | TGI [29]: 0.726 µM | TGI [51]: 4.41 µM | TGI [30]: 1.81 µM | TGI [31]: 50 µM | TGI [32]: 1.26 µM
